The results in this text go back to PubChem BioAssay (NCI).

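Assay format: 96-well plates, 48-hour exposure. Here, GI50 denotes the concentration required for 50% inhibition of growth. Definition used: TGI = concentration required for complete inhibition of growth.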

Test systems include RXF 393 renal; TK-10 renal; OVCAR-5 ovarian; NCI-H460 lung; HS 578T breast; RPMI-8226 leukemia; SNB-19 CNS; KM12 colon; SK-MEL-28 melanoma; SN12C renal.
Holding throughout (assay): growth of human tumour cells (NCI), 48 h

As to `C[C@@H]1CC[C@@H]2[C@@H](C)C[C@H]3[C@@H]4C(C)(C)OC(=O)[C@]4(C)C(=O)[C@@]23C1=O`, the GI50 with RXF 393 renal is above 100 µM. The TGI with RXF 393 renal, in the test on TK-10 renal, in the test with OVCAR-5 ovarian, in the test on NCI-H460 lung, in the test with HS 578T breast and with RPMI-8226 leukemia was above 100 µM each time. Moreover, the TGI in the test on SNB-19 CNS, in the test on KM12 colon, with SK-MEL-28 melanoma and in the test on SN12C renal was above 100 µM each time.

Turning to `CC[C@]12C=CCN3CC[C@@]4(c5ccc(OC)cc5N(C)[C@H]4[C@@](O)(C(=O)OC)[C@@H]1OC(=O)CCC(=O)N[C@H](Cc1c[nH]c4ccccc14)C(=O)OC)[C@@H]32`, the GI50 in the test with RXF 393 renal is 2.22 µM; with TK-10 renal, 13.5 µM; with OVCAR-5 ovarian it was 14.1 µM; in the test on NCI-H460 lung it was 14.8 µM; in the test with HS 578T breast, 5.52 µM; in the test with RPMI-8226 leukemia, 3.63 µM. Moreover, the GI50 was 4.74 µM in the test with SNB-19 CNS, 10.1 µM in the test with KM12 colon, 2.21 µM in the test on SK-MEL-28 melanoma and 3.68 µM in the test with SN12C renal. Further, the TGI in the test on RXF 393 renal is 5.72 µM; in the test with TK-10 renal, 29.4 µM; in the test with OVCAR-5 ovarian, 45 µM; with NCI-H460 lung it was 32.8 µM; in the test with HS 578T breast, 28.7 µM; in the test on RPMI-8226 leukemia it was 44.7 µM. The TGI amounted to 48.8 µM in the test on SNB-19 CNS, 36 µM in the test with KM12 colon, 5.44 µM with SK-MEL-28 melanoma and 23.9 µM with SN12C renal.

As to `CCOc1c(C#N)c2c(N)ncnc2n1C1OC(CO)C(O)C1O` (stereo unspecified), the GI50 is 2.27 µM in the test on RXF 393 renal; 3.05 µM in the test with TK-10 renal; 7.02 µM with OVCAR-5 ovarian; 2.48 µM in the test with NCI-H460 lung; 2.12 µM with HS 578T breast; 2.12 µM in the test with RPMI-8226 leukemia. Moreover, the GI50 in the test with SNB-19 CNS was 9.1 µM; in the test with KM12 colon, 3.11 µM; in the test on SK-MEL-28 melanoma, 2.52 µM; in the test on SN12C renal, 3.14 µM. Also, the TGI in the test on RXF 393 renal is 6.64 µM; with TK-10 renal, above 28 µM; with OVCAR-5 ovarian it was above 100 µM; in the test with NCI-H460 lung, above 100 µM; with HS 578T breast, 14 µM; in the test on RPMI-8226 leukemia, 9 µM. For the same compound, the TGI is above 100 µM with SNB-19 CNS, above 44.2 µM in the test with KM12 colon, 11.8 µM in the test on SK-MEL-28 melanoma and above 100 µM in the test on SN12C renal.

In the case of `COc1cc(/C=C\c2cc(/C=C\c3ccc(O)c(OC)c3)n(C(=O)CNc3ccc(Cl)cc3)n2)ccc1O`, the GI50 with RXF 393 renal was 2.1 µM; in the test on TK-10 renal, 5.52 µM; in the test with OVCAR-5 ovarian it was 2.78 µM; in the test with NCI-H460 lung it was 3.17 µM; with HS 578T breast, 4.36 µM; in the test with RPMI-8226 leukemia it was 1.88 µM. In addition, the GI50 in the test with SNB-19 CNS was 3.18 µM; in the test with KM12 colon, 2.64 µM; in the test with SK-MEL-28 melanoma it was 2.3 µM; with SN12C renal, 3.18 µM. In addition, the TGI in the test on RXF 393 renal was 4.67 µM; in the test on TK-10 renal, 18.8 µM; in the test on OVCAR-5 ovarian, 25.4 µM; with NCI-H460 lung, 12.5 µM; in the test with HS 578T breast, above 100 µM; with RPMI-8226 leukemia it was 6.36 µM. For the same compound, the TGI was 14.1 µM with SNB-19 CNS, 13.1 µM in the test on KM12 colon, 11.6 µM with SK-MEL-28 melanoma and 20.6 µM in the test on SN12C renal.
